Measurements: paper PMC12750218 (ACS Omega, 2025)

What was measured:
human plasma proteins = test system: human plasma proteins; parameters: method as in public assessment report of Otezla (CHMP, 2014); settings: 0.25 to 2.5 μg/mL, ref public assessment report of Otezla (CHMP, 2014); cited from earlier work
monkey plasma proteins = test system: monkey plasma proteins; parameters: method as in public assessment report of Otezla (CHMP, 2014); settings: 0.25 to 2.5 μg/mL, ref public assessment report of Otezla (CHMP, 2014); cited from earlier work
rat plasma proteins = test system: rat plasma proteins; parameters: method as in public assessment report of Otezla (CHMP, 2014); settings: 0.25 to 2.5 μg/mL, ref public assessment report of Otezla (CHMP, 2014); cited from earlier work
mouse plasma proteins = test system: mouse plasma proteins; parameters: method as in public assessment report of Otezla (CHMP, 2014); settings: 0.25 to 2.5 μg/mL, ref public assessment report of Otezla (CHMP, 2014); cited from earlier work
rabbit plasma proteins = test system: rabbit plasma proteins; parameters: method as in public assessment report of Otezla (CHMP, 2014); settings: 0.25 to 2.5 μg/mL, ref public assessment report of Otezla (CHMP, 2014); cited from earlier work
[1] = test system: human α1-acid glycoprotein (AGP); assay: HPLC on chiral AGP column (immobilized protein): retention factors and estimated bound percentage; assay type: binding; settings: for Bound percentage (b%): from ln k extrapolated to zero organic modifier, b%=100×k/(1+k); for retention factor (k): chiral AGP column, 2-propanol modifier
Protocol: In this study, AGP was used as the chiral selector. […]
HPLC columns with immobilized proteins can also be used to estimate the percentage of the drug bound to the protein. […] Extrapolating this relationship to a zero organic modifier approximates physiological conditions. The intercept of the regression lines was used to calculate protein binding percentages based on eq .
LC-UV analysis was conducted on an Agilent 1100 HPLC system that included a quaternary pump, an autosampler, a column compartment, and a DAD detector (Agilent Technologies, Waldbronn, Germany). Data analysis was performed with ChemStation software (version: B04.03-SP2). UV detection was set at 230 nm. Stock solutions were prepared in methanol at a concentration of 1 mg/mL (2.17 mM), and further dilutions were made by using deionized water. Samples were prepared to contain 0.1 mg/mL (0.217 mM) R-APR and 0.2 mg/mL (0.434 mM) S-APR, with each analysis performed using a 5 μL injection volume. […] Chromatographic data were evaluated according to standard calculation methods. The retention factor (k) for each enantiomer was determined using the following equation: k=(tr−t0)/t0 1 where tr denotes the retention time of the target enantiomer and t0 represents the column dead time.
Additionally, the retention factor was used to estimate the percentage of protein-bound analytes according to the following formula: b%=100×k/(1+k) 2 Three parallel measurements were performed for each case.

[2] = test system: human serum albumin (HSA); parameters: method as in number not printed (authors' recent work, Dombi et al., 2023); settings: binding to HSA; ref number not printed (authors' recent work, Dombi et al., 2023); cited from earlier work
[3] = test system: human α1-acid glycoprotein (AGP); assay: Ultracentrifugation, free APR in supernatant by HPLC-UV; settings: isolated human α1-acid glycoprotein (AGP) in PBS, 5 μM APR, 5-15 μM AGP, PBS pH 7.4, 20 °C, 1:1 stoichiometry, K in L mol^–1, read-out: binding (stability) constant log K (converted)
Protocol: The interaction of S-APR and R-APR with AGP was also examined with ultracentrifugation, where increasing protein levels (final concentrations: 0, 5, 10, and 15 μM) were added to a standard amount of the ligand (5 μM) in PBS (pH 7.4). These samples (600 μL) were centrifuged for 16 h at 170,000g and 20 °C employing an Optima MAX-XP ultracentrifuge (Beckman Coulter, Brea, CA, USA). Using these experimental conditions, the protein is slowly sedimented without the disruption of ligand–protein interactions. − , Thereafter, the unbound free fraction of APR was directly quantified in the protein-free supernatants by the HPLC-UV method (see the next paragraph). Binding (association) constants (K; unit: L mol^–1) of APR–AGP complexes were calculated assuming a 1:1 stoichiometry of complex formation: , K=([APR−AGP])/([APR]×[AGP]) 3 where [APR] is the molar concentration of the unbound free ligand, [AGP] is the molar concentration of the unbound free protein, and [APR–AGP] indicates the molar concentration of the ligand–protein complex.
The APR concentration after centrifugation was measured by a validated HPLC-UV method using an XTERRA RP18 column (5 μm, 4.6 × 100 mm), maintained at 40 °C. Isocratic elution was applied using acetonitrile and water containing 0.5% formic acid (60:40, v/v) as the mobile phase. […] The concentration was determined by using the external standard method. […]

[4] = test system: human α1-acid glycoprotein (AGP); assay: Isothermal titration calorimetry of AGP with APR enantiomers; assay type: binding; settings: ITC, aqueous 5% DMSO, 25 °C; for Standard entropy (ΔS) of binding: calculated from ΔG=ΔH−TΔS; for Standard Gibbs free energy (ΔG) of binding: calculated from −RTlnK
Protocol: The working cell contained 1427.5 μL of AGP solution, which was titrated with 5 μL aliquots of the APR solution from the syringe, up to a total volume of 275 μL. The reference cell was filled with aqueous 5% DMSO. Each injection lasted 10 s, with a 1000 s interval between injections. The stirring speed was maintained at 307 rpm.
The resulting isotherm was next fitted with the nonlinear multiparameter regression method (Origin 7.0 MicroCal) using the One Set of Sites model, which assumes that a receptor (macromolecule) has a single class of multiple independent binding sites for a ligand. In this model, each site has the same affinity and thermodynamics for the ligand, and the binding of one ligand molecule to a site is independent of the binding events at other sites. […] The standard Gibbs free energy of binding ΔG and standard entropy of binding ΔS can be next calculated using the basic thermodynamic relationship ΔG=ΔH−TΔS=−RTln⁡K where T is temperature and R is the gas constant.

[5] = 25 °C, sodium phosphate buffer 10 mM pH 7.0, 95% in eluent
[6] = ammonium acetate buffer 10 mM pH 7.0, 85% in eluent
[7] = ammonium acetate buffer 10 mM pH 7.0, 90% in eluent
[8] = ammonium acetate buffer 10 mM pH 7.0, 92.5% in eluent
[9] = ammonium acetate buffer 10 mM pH 7.0, 95% in eluent
[10] = ammonium bicarbonate buffer 10 mM pH 7.0, 85% in eluent
[11] = ammonium bicarbonate buffer 10 mM pH 7.0, 90% in eluent
[12] = ammonium bicarbonate buffer 10 mM pH 7.0, 92.5% in eluent
[13] = ammonium bicarbonate buffer 10 mM pH 7.0, 95% in eluent
[14] = sodium phosphate buffer 10 mM pH 7.0, 85% in eluent
[15] = sodium phosphate buffer 10 mM pH 7.0, 90% in eluent
[16] = sodium phosphate buffer 10 mM pH 7.0, 92.5% in eluent

Row | Compound | Bound percentage (b%) ([1]; ammonium acetate buffer) [%] | Bound percentage (b%) ([1]; ammonium bicarbonate buffer) [%] | retention factor (k) [1, 5] | retention factor (k) [1, 6] | retention factor (k) [1, 7] | retention factor (k) [1, 8] | retention factor (k) [1, 9] | retention factor (k) [1, 10] | retention factor (k) [1, 11] | retention factor (k) [1, 12] | retention factor (k) [1, 13] | retention factor (k) [1, 14] | retention factor (k) [1, 15] | retention factor (k) [1, 16] | Bound percentage (b%) ([1]; sodium phosphate buffer) [%] | Stability constant (log K), HSA [2] | Kd at 16 h, 5 µM [3] [nM] | Standard enthalpy (ΔH) of binding [4] | Standard entropy (ΔS) of binding [4] [cal K^–1 mol^–1] | Standard Gibbs free energy (ΔG) of binding [4] | other results
1 | CCOc1cc([C@@H](CS(C)(=O)=O)N2C(=O)c3cccc(NC(C)=O)c3C2=O)ccc1OC [APR, Apremilast] | – | – | – | – | – | – | – | – | – | – | – | – | – | – | – | – | – | – | – | – | average percentage bound to plasma proteins (human plasma proteins): 68.3%; average percentage bound to plasma proteins (monkey plasma proteins): 84.3%; average percentage bound to plasma proteins (rat plasma proteins): 90.6%; average percentage bound to plasma proteins (mouse plasma proteins): 88.6%; average percentage bound to plasma proteins (rabbit plasma proteins): 80.9%
2 | CCOc1cc([C@H](CS(C)(=O)=O)N2C(=O)c3cccc(NC(C)=O)c3C2=O)ccc1OC [R-APR, apremilast] | 98.37 | 99.19 | 3.99 ± 0.02 | 0.33 ± 0.01 | 0.90 ± 0.01 | 1.51 ± 0.03 | 3.29 ± 0.02 | 0.32 ± 0.01 | 0.94 ± 0.01 | 1.62 ± 0.01 | 3.59 ± 0.02 | 0.34 ± 0.01 | 0.98 ± 0.01 | 1.69 ± 0.01 | 99.31 | 3.81 ± 0.05 | 2290 | –3.40 ± 0.26 kcal mol^–1 | 13.7 ± 1.5 | –7.48 ± 0.18 kcal mol^–1 | –
3 | CCOc1cc([C@@H](CS(C)(=O)=O)N2C(=O)c3cccc(NC(C)=O)c3C2=O)ccc1OC [S-APR, apremilast] | 99.01 | 99.54 | 5.05 ± 0.03 | 0.33 ± 0.01 | 0.90 ± 0.01 | 1.72 ± 0.03 | 4.07 ± 0.02 | 0.32 ± 0.01 | 0.94 ± 0.01 | 1.89 ± 0.01 | 4.44 ± 0.02 | 0.34 ± 0.01 | 0.98 ± 0.01 | 2.00 ± 0.01 | 99.63 | 4.02 ± 0.08 | 1700 | –4.80 ± 0.27 kcal mol^–1 | 9.3 ± 1.3 | –7.57 ± 0.12 kcal mol^–1 | –
